Test results from patent US7030287B2, “Method of decreasing nitrate nitrogen and volatile organic compound in soil and groundwater” (Matsushita Electric Industrial Co., Ltd., priority 2001, dated 2006).

Tests used:
[1] = Polluted soil experiment (Examples 4 to 7): 1,1,1-trichloroethane concentration in polluted soil by GC-MS
Text: (§1) FIG. 4 is a view showing an experiment facility used for effecting the method of decreasing nitrate nitrogen and volatile organic compounds in Example 4. A part (a) of FIG. 4 is a plan view of the experiment facility, and a part (b) of FIG. 4 is a side view thereof.
(§2) As shown in the part (a) of FIG. 4, the polluted soil 32 is provided approximately at the center of the experiment bath 34 so that it is surrounded by the experiment soil 33.
(§3) In Example 4, the concrete frame 31 in the form of square measure is a cube of 1 m square having open upper part, and artificial soil prepared by mixing kuroboku soil and loam in equivalent amounts was charged in the experiment bath 34 formed with the concrete frame 31 and allowed to stand outdoors (average temperature: 21° C.) for about 2 months.
(§4) Then, the surface of the artificial soil formed as described above was dug to form a hole in the form of cylinder having a diameter of 30 cm and a depth of 50 cm, and this hole was re-buried with the polluted soil 32.
(§5) The polluted soil was obtained by adding experiment materials (containing no nitrogen atom) such as fatty acids and alcohols of the present invention and comparative materials of conventional technologies used for comparison in an amount of 1 wt % to 1.2 ton of soil polluted with 1,1,1-trichloroethane and 1,1-dichloroethylene (containing about 1400 μg/L of […], about 50 μg/L of 1,1-dichloroethylene, by elution test according to Kankoku No. 46), and mixing kuroboku soil and loam in equivalent amounts uniformly.
(§6) To the polluted soil formed as described above was fed diammonium hydrogen phosphate having a concentration of 100 mg/L as a nutrient salt (nitrogen source) at a ratio of 140 L/day.
(§7) Under the above-mentioned conditions, the concentrations of 1,1,1-trichloroethane and 1,1-dichloroethylene in the polluted soil 32 were measured by gas chromatograph mass spectrometry 20 days after initiation of the experiment. Soils around the re-buried polluted soil 32 (soils on four corners A to D at a depth of 50 cm in FIG. 4) were sampled, and four-point average values of the total carbon concentration and total nitrogen concentration per soil dried weight were measured.
(§8) In the method of decreasing nitrate nitrogen and volatile organic compounds in Example 5, the same experiment facility (FIG. 4) as in Example 4 was used. Stearic acid was used as the decreasing agent such as fatty acids, alcohols and the like used in the present invention, and an iron powder having an average particle size of about 15 μm was added simultaneously with this stearic acid, to give polluted soil of compartment No. 1. In polluted soil of compartment No. 2, stearic acid and an aluminum powder having an average particle size of 180 μm were added in the same concentration as the polluted soil of compartment No. 1. The same experiment as in Example 4 was conducted on these polluted soils (compartment Nos. 1, 2).
(§9) In the method of decreasing nitrate nitrogen and volatile organic compounds in Example 6, the same experiment facility (FIG. 4) as in Example 4 was used. Beef tallow fatty acid was used as the decreasing agent such as fatty acids, alcohols and the like used in the present invention, and a bacteria previously cultured was inoculated to the soil and the same experiment as in Example 4 was conducted.
(§10) For obtaining the bacteria used in Example 6, 1,1,1-trichloroethane was controlled to 5000 μg/L, 1,1-dichloroethylene was controlled to 5000 μg/L, diammonium hydrogen phosphate was controlled to 800 mg/L and beef tallow fatty acid which was only carbon source was controlled to 0.5 wt % in soil collected at a point of 30 cm depth from the ground surface of agricultural land (tea field), and the medium was cultured at a temperature of 16° C. for 12 days.
(§11) In the method of decreasing nitrate nitrogen and volatile organic compounds in Example 7, the same experiment facility (FIG. 4) as in Example 4 was used. […]

[2] = Polluted soil experiment (Examples 4 to 7): 1,1-dichloroethylene concentration in polluted soil by GC-MS
Text: as §1, §2, §3, §4, §5, §6, §7, §8, §9, §10, §11

[3] = Artificial soil experiment (Example 1): materials mixed 1 wt % in kuroboku soil, analysis of water passed through the gravel layer; conditions: water passed through soil with 1 wt % material, nitrate nitrogen solution 90 mg/L added 100 mL/day
Protocol: FIG. 1 is a sectional view showing an artificial soil experiment facility used for effecting a soil experiment in a method of decreasing nitrate nitrogen and volatile organic compounds in Example 1.
On each experiment bath 7, nozzles are placed for adding a nitrate nitrogen solution, and these nozzles are communicated with a pipe 6 in which the nitrate nitrogen solution flows.
The following experiments were conducted using the artificial soil experiment facility constituted as described above.
In the experiment bath 7, a gravel layer 3 and experiment soil 2 are placed. In each experiment soil 2, a carrot seedling 5 is planted.
The ground surface area of the experimental bath 7 was 11 m^2, and the soil depth of the experimental soil 2 was 1.4 m. Kuroboku soil was used as the experimental soil 2. Under this experiment soil 2, a gravel layer 3 is formed by placing gravels at a thickness of 20 cm from the bottom.
In 14 compartments of experiment layers 7, five carrot seedlings having a leaf length of about 14 cm were planted in each compartment, and a nitrate nitrogen solution of which nitrate nitrogen concentration had been previously controlled to 90 mg/L was added continuously at a rate of 100 mL/day using a metering pump. Of 14 compartments of experiment layers 7, in compartments Nos. 1 to 9, experiment materials of the present invention were mixed in soil, and in compartments Nos. 10 to 14, comparative materials were mixed in soil, before experiments.
The experiment soils 2 in each test district and comparative district were made by uniformly mixing experiment materials (fatty acid, alcohol and the like) and comparative materials (materials used in conventional technologies) in a soil dry weight ratio of 1 wt %, previously.
In the artificial soil experiment facility constituted as described above, water passed through the gravel layer 3 was collected, and analyses of the nitrate nitrogen concentration, ammonia nitrogen concentration and total carbon concentration after 65 days were conducted according to JIS methods.

[4] = Artificial groundwater experiment (Example 2): 800 g hydrogen donor added from artificial well, analysis of sampled groundwater; conditions: 800 g material, nitrate nitrogen solution 40 mg/L added 12 mL/day
Text: FIG. 2 is a sectional view showing an artificial groundwater experiment facility used for effecting a groundwater experiment in the method of decreasing nitrate nitrogen and volatile organic compounds in Example 2.
In the experiment bath 17 surrounded by the concrete block frame 11 in the artificial groundwater experiment facility, the ground surface area of the experiment soil 12 was 18 m^2, and the soil depth was 6.0 m. Under this experiment soil 12, a gravel layer 13 is formed at a thickness of 50 cm. A mixture of kuroboku soil and loam at a ratio of about 6:4 was used as the experiment soil 12.
In the experiment bath 17, an artificial well 14 constituted of a vinyl chloride tube having a diameter of 20 cm is provided. This artificial well 14 is provided at a position 0.5 m from the inner wall surface at one end of the experiment bath 17 (this inner wall surface is standard position) and has a depth of about 6 m, and reaches to the gravel layer 13. Further, a nitrate nitrogen solution addition piper 16 for adding a nitrate nitrogen solution is buried at a position 2 m from the inner wall surface (standard position) of the experiment bath 17 in the artificial groundwater experiment facility, extending to a position 4 m depth from the ground surface. A measurement water incorporating port 15 communicating to outside is provided on another inner wall surface opposite to the standard surface, one inner wall surface. This measurement water incorporating port 15 is formed at a position 50 cm from the bottom (corresponding to the uppermost part of the gravel layer 13), and provided for sampling measurement water which is groundwater.
The following experiments were conducted in 12 compartments using the artificial soil experiment facility constituted as described above.
In each experiment bath 17, a nitrate nitrogen solution of which nitrate nitrogen concentration had been previously controlled to 40 mg/L was added continuously from the end of the nitrate nitrogen solution adding pipe 16 (position 4 m from the ground surface) at a rate of 12 mL/day using a metering pump.
Under the above-mentioned conditions, movement of artificial groundwater is estimated to about 6.5 m/year. The present inventors have added 800 g of each hydrogen donor from the artificial well 14 in each test district and each comparative district. 30 days after initiation of the test, water was sampled from the measurement water incorporating port 15 formed at a position 50 cm from the bottom (corresponding to the uppermost part of gravel layer), and analyses of the nitrate nitrogen concentration, ammonia nitrogen concentration and total carbon concentration of the collected water were conducted according to JIS methods.

[5] = Example 7, nutrient salt containing nitrogen not added
[6] = Example 4, 1 wt % material in polluted soil (about 1400 μg/L initially), diammonium hydrogen phosphate fed
[7] = Example 4, 1 wt % material in polluted soil (about 50 μg/L initially), diammonium hydrogen phosphate fed

## CC(=O)O [Acetic acid, reference compound]
[1]; [5]
  1,1,1-trichloroethane concentration after 20 days: 1350 µg/L
[2]; [5]
  1,1-dichloroethylene concentration after 20 days: 41 µg/L

## CCCCCCCCCCCCCCCCCCCCCCO [Behenyl alcohol]
[1]; [6]
  1,1,1-trichloroethane concentration after 20 days: 920 µg/L
[2]; [7]
  1,1-dichloroethylene concentration after 20 days: 21 µg/L

## CCCCCCCC(=O)O [Caprylic acid, reference compound]
[1]; [6]
  1,1,1-trichloroethane concentration after 20 days: 960 µg/L
[2]; [7]
  1,1-dichloroethylene concentration after 20 days: 16 µg/L

## CCCCCCCCCCCCCCCCOC(=O)CCCCCCCCCCCCCCC [Cetyl palmitate]
[3]
  Nitrate nitrogen concentration after 65 days: 20 mg/L

## CCCCCCCCCCCCCCCCCC(=O)O[C@H]1CC[C@@]2(C)C(=CC[C@H]3[C@@H]4CC[C@H]([C@H](C)CCCC(C)C)[C@@]4(C)CC[C@@H]32)C1 [Cholesterol stearate]
[1]; [6]
  1,1,1-trichloroethane concentration after 20 days: 650 µg/L
[2]; [7]
  1,1-dichloroethylene concentration after 20 days: 20 µg/L

## CCCCCCCCCCCCCCCCCCC(=O)CCCCCCCCCCCCCCCCCC [Distearyl ketone]
[1]; [5]
  1,1,1-trichloroethane concentration after 20 days: 830 µg/L
[2]; [5]
  1,1-dichloroethylene concentration after 20 days: 20 µg/L

## CCCCCCCCCCCCCCCCCCNCCCCCCCCCCCCCCCCCC [Distearylamine]
[1]; [5]
  1,1,1-trichloroethane concentration after 20 days: 910 µg/L
[2]; [5]
  1,1-dichloroethylene concentration after 20 days: 24 µg/L

## CCO [Ethanol, reference compound]
[1]; [6]
  1,1,1-trichloroethane concentration after 20 days: 1100 µg/L
[2]; [7]
  1,1-dichloroethylene concentration after 20 days: 19 µg/L

## CC(O)C(=O)O (stereo not drawn) [Lactic acid, reference compound]
[1]; [6]
  1,1,1-trichloroethane concentration after 20 days: 870 µg/L
[2]; [7]
  1,1-dichloroethylene concentration after 20 days: 20 µg/L

## OC[C@H]1O[C@@H](O[C@H]2[C@H](O)[C@@H](O)C(O)O[C@@H]2CO)[C@H](O)[C@@H](O)[C@H]1O (stereo partly drawn) [Lactose, reference compound]
[3]
  Nitrate nitrogen concentration after 65 days: 41 mg/L

## CO [Methanol, reference compound]
[1]; [5]
  1,1,1-trichloroethane concentration after 20 days: 1330 µg/L
[2]; [5]
  1,1-dichloroethylene concentration after 20 days: 49 µg/L

## CCCCCCCCCCCCCCOC(=O)CCCCCCCCCCCCC [Myristyl myristate]
[4]
  Nitrate nitrogen concentration after 30 days: 5 mg/L

## CCCCCCCCCCCCCCN [Myristylamine]
[1]; [5]
  1,1,1-trichloroethane concentration after 20 days: 940 µg/L
[2]; [5]
  1,1-dichloroethylene concentration after 20 days: 29 µg/L

## CCCCCCCC/C=C\CCCCCCCC(=O)O [Oleic acid, reference compound]
[1]; [6]
  1,1,1-trichloroethane concentration after 20 days: 690 µg/L
[2]; [7]
  1,1-dichloroethylene concentration after 20 days: 21 µg/L

## CCCCCCCCCCCCCCCCCC(=O)O [Stearic acid]
[1]; [6]
  1,1,1-trichloroethane concentration after 20 days: 820 µg/L
[3]
  Nitrate nitrogen concentration after 65 days: 22 mg/L
[2]; [7]
  1,1-dichloroethylene concentration after 20 days: 24 µg/L

## CCCCCCCCCCCCCCCCCC(N)=O [Stearic amide]
[1]; [5]
  1,1,1-trichloroethane concentration after 20 days: 790 µg/L
[2]; [5]
  1,1-dichloroethylene concentration after 20 days: 24 µg/L

## CCCCCCCCCCCCCCCCCCO [Stearyl alcohol]
[4]
  Nitrate nitrogen concentration after 30 days: 4 mg/L

## CC(=O)O.CCCCCCCCCCCCCCCCCCN [Stearylamine acetate]
[1]; [5]
  1,1,1-trichloroethane concentration after 20 days: 900 µg/L
[2]; [5]
  1,1-dichloroethylene concentration after 20 days: 28 µg/L

## CCCCCCCCCCCCO [lauryl alcohol]
[3]
  Nitrate nitrogen concentration after 65 days: 18 mg/L

## Myristilate
[4]
  Nitrate nitrogen concentration after 30 days: 9 mg/L

## Oleic monoglyceride
[1]; [6]
  1,1,1-trichloroethane concentration after 20 days: 700 µg/L
[2]; [7]
  1,1-dichloroethylene concentration after 20 days: 19 µg/L

## Polyoxyethylene octylphenyl ether
[1]; [6]
  1,1,1-trichloroethane concentration after 20 days: 820 µg/L
[2]; [7]
  1,1-dichloroethylene concentration after 20 days: 24 µg/L

## Sorbitan distearate
[3]
  Nitrate nitrogen concentration after 65 days: 14 mg/L

## Sorbitan monopalmitate
[4]
  Nitrate nitrogen concentration after 30 days: 5 mg/L

## Tetraglyceryl pentastearate
[4]
  Nitrate nitrogen concentration after 30 days: 8 mg/L
